The results in this text go back to article PMC10692473 (Acta Pharmaceutica Sinica. B, 2023).

In brackets after ≈: the same amount, converted by molar mass.

One assay deals with E. coli gyrase (Escherichia coli, UniProt P0AES6). Nature of the assay: Gyrase inhibitory assay. Format: biochemical.
Another assay has as its system S. aureus (ATCC29213). Nature of the assay: Antibacterial assay. Conditions: Staphylococcus aureus, ATCC29213, read-out: MIC S. aureus (ATCC29213).
For the next assay, the system named is E. coli (ATCC25922). Description: Antibacterial assay. The settings on record: Escherichia coli, ATCC25922, read-out: MIC E. coli (ATCC25922).
The target of the next assay is S. aureus gyrase (Staphylococcus aureus, UniProt P0A0K8). Description: Gyrase inhibitory assay. Format: biochemical.
Chain of S. aureus gyrase (P0A0K8 whole entry): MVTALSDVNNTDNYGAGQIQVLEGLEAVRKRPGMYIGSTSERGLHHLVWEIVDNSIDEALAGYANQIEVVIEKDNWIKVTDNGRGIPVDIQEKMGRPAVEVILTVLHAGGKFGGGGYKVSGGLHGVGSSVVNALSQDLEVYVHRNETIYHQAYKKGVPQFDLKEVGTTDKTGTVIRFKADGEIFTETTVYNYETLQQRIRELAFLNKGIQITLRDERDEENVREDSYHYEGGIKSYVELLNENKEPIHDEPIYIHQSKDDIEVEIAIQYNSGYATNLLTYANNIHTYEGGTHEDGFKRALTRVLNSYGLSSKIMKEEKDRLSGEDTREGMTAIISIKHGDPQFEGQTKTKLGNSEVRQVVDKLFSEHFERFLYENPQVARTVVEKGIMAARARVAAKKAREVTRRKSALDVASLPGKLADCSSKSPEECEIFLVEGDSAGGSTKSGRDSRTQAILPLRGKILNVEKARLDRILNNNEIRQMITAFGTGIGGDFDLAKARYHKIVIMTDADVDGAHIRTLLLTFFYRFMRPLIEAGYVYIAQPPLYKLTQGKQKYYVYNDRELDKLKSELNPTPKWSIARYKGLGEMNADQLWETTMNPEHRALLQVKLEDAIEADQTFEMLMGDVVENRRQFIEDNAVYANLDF
Chain of S. aureus gyrase (P20831 whole entry partner): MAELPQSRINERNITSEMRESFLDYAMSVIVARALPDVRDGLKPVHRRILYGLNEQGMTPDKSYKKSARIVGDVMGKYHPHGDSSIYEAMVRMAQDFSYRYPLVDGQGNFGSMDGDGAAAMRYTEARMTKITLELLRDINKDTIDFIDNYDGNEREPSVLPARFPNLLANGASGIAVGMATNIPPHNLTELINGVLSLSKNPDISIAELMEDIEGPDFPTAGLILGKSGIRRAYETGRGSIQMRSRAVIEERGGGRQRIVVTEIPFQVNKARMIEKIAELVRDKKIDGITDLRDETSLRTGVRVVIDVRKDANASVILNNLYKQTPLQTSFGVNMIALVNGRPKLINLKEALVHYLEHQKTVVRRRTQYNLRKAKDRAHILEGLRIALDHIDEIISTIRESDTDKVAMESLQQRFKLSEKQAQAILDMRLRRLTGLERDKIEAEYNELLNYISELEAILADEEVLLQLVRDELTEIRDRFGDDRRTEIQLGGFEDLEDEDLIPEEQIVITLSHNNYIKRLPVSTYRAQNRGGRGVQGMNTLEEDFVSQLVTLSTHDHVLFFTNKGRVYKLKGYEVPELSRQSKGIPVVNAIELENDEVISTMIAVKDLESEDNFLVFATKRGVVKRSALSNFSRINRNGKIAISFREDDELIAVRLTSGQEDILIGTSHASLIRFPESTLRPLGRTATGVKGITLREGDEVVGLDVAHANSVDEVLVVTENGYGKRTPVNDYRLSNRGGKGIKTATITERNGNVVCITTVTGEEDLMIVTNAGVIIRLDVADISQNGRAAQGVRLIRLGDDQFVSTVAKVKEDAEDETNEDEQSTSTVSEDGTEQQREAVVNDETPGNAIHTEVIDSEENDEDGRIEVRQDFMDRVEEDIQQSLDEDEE

For orientation: IC50 means the concentration at which inhibition is half-maximal. Low values mean higher potency, high ones lower potency. Usually MIC stands for the lowest concentration that inhibits growth of the organism.

Turning to `COC(=O)c1cnc(N2CC[C@@H](NC(=O)c3[nH]c(C)c(Cl)c3Cl)[C@@H](OC)C2)s1` [Compound 9, Methyl 2-((3S,4R)-4-(3,4-dichloro-5-methyl-1H-pyrrole-2-carboxamido)-3-methoxypiperidin-1-yl)thiazole-5-carboxylate], the IC50 against E. coli gyrase was more than 10 µM; at S. aureus gyrase it was 1.45 ± 0.111 µM. The MIC with S. aureus (ATCC29213) was 0.125 µg/mL (≈ 0.279 µM); in the assay on E. coli (ATCC25922) it was more than 128 µg/mL.

On to `CCOC(=O)c1nnc(N2CC[C@@H](NC(=O)c3[nH]c(C)c(Cl)c3Cl)[C@@H](OC)C2)s1` [Compound 10, Ethyl 5-((3S,4R)-4-(3,4-dichloro-5-methyl-1H-pyrrole-2-carboxamido)-3-methoxy-piperidin-1-yl)-1,3,4-thiadiazole-2-carboxylate], for which the half-maximal inhibitory concentration (IC50) against E. coli gyrase worked out at 6.87 ± 1.22 µM; on S. aureus gyrase it was 0.137 ± 0.013 µM. For the same compound, the MIC in the assay on S. aureus (ATCC29213) was determined as 0.125 µg/mL (≈ 0.27 µM); in the assay on E. coli (ATCC25922), 16 µg/mL (≈ 34.6 µM).

In the case of `COC(=O)c1ccc(N2CC[C@@H](NC(=O)c3[nH]c(C)c(Cl)c3Cl)[C@@H](OC)C2)nc1` [Compound 11, Methyl 6-((3S,4R)-4-(3,4-dichloro-5-methyl-1H-pyrrole-2-carboxamido)-3-methoxy-piperidin-1-yl)nicotinate], the figures for the IC50 at E. coli gyrase and against S. aureus gyrase were more than 10 µM and 3.35 ± 0.154 µM, respectively. Besides, the MIC in the assay with S. aureus (ATCC29213) was 1 µg/mL (≈ 2.27 µM); in the assay on E. coli (ATCC25922), more than 128 µg/mL.

With `CCOC(=O)c1cnc(N2CC[C@@H](NC(=O)c3[nH]c(C)c(Cl)c3Cl)[C@@H](OC)C2)nc1` [Compound 12, Ethyl 2-((3S,4R)-4-(3,4-dichloro-5-methyl-1H-pyrrole-2-carboxamido)-3-methoxy-piperidin-1-yl)pyrimidine-5-carboxylate], the IC50 was more than 10 µM on E. coli gyrase and 4.87 ± 0.02 µM at S. aureus gyrase. In addition, the results for the MIC with S. aureus (ATCC29213) and with E. coli (ATCC25922) were 0.125 µg/mL (≈ 0.274 µM) and more than 128 µg/mL, respectively.

In the case of `COC(=O)c1cnc(N2CC[C@@H](NC(=O)c3[nH]c(C)c(Cl)c3Cl)[C@@H](OC)C2)cn1` [Compound 13, Methyl-5-((3S,4R)-4-(3,4-dichloro-5-methyl-1H-pyrrole-2-carboxamido)-3-methoxypiperidin-1-yl)pyrazine-2-carboxylate], the IC50 against E. coli gyrase and on S. aureus gyrase was more than 10 µM throughout. Also, the MIC with S. aureus (ATCC29213) and in the assay on E. coli (ATCC25922) was more than 128 µg/mL throughout.

For the compound `CCOC(=O)c1nnc(N2CC[C@@H](NC(=O)c3[nH]c(C)c(Cl)c3Cl)[C@@H](OC)C2)o1` [Compound 16, Ethyl-5-((3S,4R)-4-(3,4-dichloro-5-methyl-1H-pyrrole-2-carboxamido)-3-methoxypiperidin-1-yl)-1,3,4-oxadiazole-2-carboxylate], the IC50 is more than 10 µM against E. coli gyrase and 2.34 µM against S. aureus gyrase. Besides, the MIC came out at 0.5 µg/mL (≈ 1.12 µM) in the assay on S. aureus (ATCC29213) and 128 µg/mL (≈ 287 µM) with E. coli (ATCC25922).

Turning to `CO[C@H]1CN(c2ccc(F)nn2)CC[C@H]1NC(=O)c1[nH]c(C)c(Cl)c1Cl` [Compound 17, 3,4-Dichloro-N-((3S,4R)-1-(6-fluoropyridazin-3-yl)-3-methoxypiperidin-4-yl)-5-methyl-1H-pyrrole-2-carboxamide], the IC50 was determined as 8.21 ± 1.21 µM against E. coli gyrase and 0.084 ± 0.037 µM on S. aureus gyrase. Moreover, the results for the MIC in the assay on S. aureus (ATCC29213) and with E. coli (ATCC25922) were 0.25 µg/mL (≈ 0.621 µM) and 16 µg/mL (≈ 39.8 µM), respectively.

For the compound `CO[C@H]1CN(c2ccc(Br)nn2)CC[C@H]1NC(=O)c1[nH]c(C)c(Cl)c1Cl` [Compound 18, N-((3S,4R)-1-(6-Bromopyridazin-3-yl)-3-methoxypiperidin-4-yl)-3,4-dichloro-5-methyl-1H-pyrrole-2-carboxamide], the IC50 against E. coli gyrase came to 7.42 ± 1.01 µM; on S. aureus gyrase, 0.13 ± 0.017 µM. Further, the MIC with S. aureus (ATCC29213) was determined as 0.03 µg/mL (≈ 0.0648 µM); in the assay on E. coli (ATCC25922) it was 4 µg/mL (≈ 8.64 µM).

On to `CO[C@H]1CN(c2ccc(C(F)(F)F)nn2)CC[C@H]1NC(=O)c1[nH]c(C)c(Cl)c1Cl` [Compound 19, 3,4-Dichloro-N-((3S,4R)-3-methoxy-1-(6-(trifluoromethyl)pyridazin-3-yl)piperidin-4-yl)-5-methyl-1H-pyrrole-2-carboxamide], for which the IC50 on E. coli gyrase was found to be 9.31 ± 0.923 µM; against S. aureus gyrase, 0.12 ± 0.047 µM. The MIC in the assay on S. aureus (ATCC29213) came out at 0.03 µg/mL (≈ 0.0663 µM); in the assay on E. coli (ATCC25922), 16 µg/mL (≈ 35.4 µM).

With `CO[C@H]1CN(c2ccc(C#N)nn2)CC[C@H]1NC(=O)c1[nH]c(C)c(Cl)c1Cl` [Compound 20, 3,4-Dichloro-N-((3S,4R)-1-(6-cyanopyridazin-3-yl)-3-methoxypiperidin-4-yl)-5-methyl-1H-pyrrole-2-carboxamide], the IC50 is more than 10 µM on E. coli gyrase and 0.701 ± 0.248 µM against S. aureus gyrase. Besides, the MIC in the assay with S. aureus (ATCC29213) is 0.06 µg/mL (≈ 0.147 µM); in the assay with E. coli (ATCC25922), more than 128 µg/mL.

Regarding `CO[C@H]1CN(c2ccc(C(C)=O)nn2)CC[C@H]1NC(=O)c1[nH]c(C)c(Cl)c1Cl` [Compound 21, N-((3S,4R)-1-(6-Acetylpyridazin-3-yl)-3-methoxypiperidin-4-yl)-3,4-dichloro-5-methyl-1H-pyrrole-2-carboxamide], the figures for the IC50 at E. coli gyrase and on S. aureus gyrase were more than 10 µM and 0.825 ± 0.303 µM, respectively. In addition, the MIC was 0.06 µg/mL (≈ 0.141 µM) in the assay with S. aureus (ATCC29213) and more than 128 µg/mL in the assay with E. coli (ATCC25922).

`CO/N=C(\C)c1ccc(N2CC[C@@H](NC(=O)c3[nH]c(C)c(Cl)c3Cl)[C@@H](OC)C2)nn1` [Compound 24, 3,4-Dichloro-N-((3S,4R)-3-methoxy-1-(6-((E)-1-(methoxyimino)ethyl)pyridazin-3-yl)piperidin-4-yl)-5-methyl-1H-pyrrole-2-carboxamide]: the IC50 against E. coli gyrase is more than 10 µM; on S. aureus gyrase, 2.07 ± 0.568 µM. The MIC was 0.03 µg/mL (≈ 0.0659 µM) with S. aureus (ATCC29213) and more than 128 µg/mL in the assay on E. coli (ATCC25922).

On to `CO[C@H]1CN(c2ccc(/C(C)=N/OCC(=O)O)nn2)CC[C@H]1NC(=O)c1[nH]c(C)c(Cl)c1Cl` [Compound 25, 2-((((E)-1-(6-((3S,4R)-4-(3,4-Dichloro-5-methyl-1H-pyrrole-2-carboxamido)-3-methoxypiperidin-1-yl)pyridazine-3-yl)ethylidene)amino)oxy)acetic acid], for which the values for the IC50 against E. coli gyrase and at S. aureus gyrase were more than 10 µM and 0.172 ± 0.056 µM, respectively. The MIC with S. aureus (ATCC29213) was 0.25 µg/mL (≈ 0.501 µM); in the assay on E. coli (ATCC25922), more than 128 µg/mL.

With `CO[C@H]1CN(c2ccc(CO)nn2)CC[C@H]1NC(=O)c1[nH]c(C)c(Cl)c1Cl` [Compound 27, 3,4-Dichloro-N-((3S,4R)-1-(6-(hydroxymethyl)pyridazin-3-yl)-3-methoxypiperidin-4-yl)-5-methyl-1H-pyrrole-2-carboxamide], the IC50 on E. coli gyrase worked out at 5.11 ± 0.545 µM; against S. aureus gyrase it was 0.094 ± 0.04 µM. For the same compound, the minimal inhibitory concentration (MIC) with S. aureus (ATCC29213) stood at 0.03 µg/mL (≈ 0.0724 µM); in the assay on E. coli (ATCC25922), 4 µg/mL (≈ 9.66 µM).

Regarding `CNC(=O)c1ccc(N2CC[C@@H](NC(=O)c3[nH]c(C)c(Cl)c3Cl)[C@@H](OC)C2)nn1` [Compound 30, 6-((3S,4R)-4-(3,4-Dichloro-5-methyl-1H-pyrrole-2-carboxamido)-3-methoxypiperidin-1-yl)-N-methylpyridazine-3-carboxamide], the results for the concentration for half-maximal inhibition (IC50) against E. coli gyrase and against S. aureus gyrase were more than 10 µM and 0.696 ± 0.056 µM, respectively. Further, the MIC in the assay on S. aureus (ATCC29213) was 0.125 µg/mL (≈ 0.283 µM); with E. coli (ATCC25922), 16 µg/mL (≈ 36.3 µM).

Consider `CCNC(=O)c1ccc(N2CC[C@@H](NC(=O)c3[nH]c(C)c(Cl)c3Cl)[C@@H](OC)C2)nn1` [Compound 31, 6-((3S,4R)-4-(3,4-Dichloro-5-methyl-1H-pyrrole-2-carboxamido)-3-methoxypiperidin-1-yl)-N-ethylpyridazine-3-carboxamide], for which the IC50 on E. coli gyrase is more than 10 µM; against S. aureus gyrase, 0.576 ± 0.045 µM. Further, the MIC in the assay with S. aureus (ATCC29213) is 0.125 µg/mL (≈ 0.275 µM); in the assay on E. coli (ATCC25922), more than 128 µg/mL.

With `CO[C@H]1CN(c2ccc(C(=O)NCCN)nn2)CC[C@H]1NC(=O)c1[nH]c(C)c(Cl)c1Cl` [Compound 32, N-(2-Aminoethyl)-6-((3S,4R)-4-(3,4-dichloro-5-methyl-1H-pyrrole-2-carboxamido)-3-methoxypiperidin-1-yl)pyridazine-3-carboxamide], the IC50 on E. coli gyrase and at S. aureus gyrase was more than 10 µM in each case. The MIC in the assay with S. aureus (ATCC29213) was found to be 32 µg/mL (≈ 68 µM); in the assay on E. coli (ATCC25922), 64 µg/mL (≈ 136 µM).

Regarding `CO[C@H]1CN(c2ccc(C(=O)N3CCNCC3)nn2)CC[C@H]1NC(=O)c1[nH]c(C)c(Cl)c1Cl` [Compound 33, 3,4-Dichloro-N-((3S,4R)-3-methoxy-1-(6-(piperazine-1-carbonyl)pyridazin-3-yl)piperidin-4-yl)-5-methyl-1H-pyrrole-2-carboxamide], the IC50 against E. coli gyrase is more than 10 µM; against S. aureus gyrase it was 1.09 ± 0.146 µM. The MIC with S. aureus (ATCC29213) was 0.25 µg/mL (≈ 0.504 µM); with E. coli (ATCC25922), 32 µg/mL (≈ 64.5 µM).

Turning to `CO[C@H]1CN(c2ccc(CN)nn2)CC[C@H]1NC(=O)c1[nH]c(C)c(Cl)c1Cl` [Compound 34, N-((3S,4R)-1-(6-(Aminomethyl)pyridazin-3-yl)-3-methoxypiperidin-4-yl)-3,4-dichloro-5-methyl-1H-pyrrole-2-carboxamide], the IC50 against E. coli gyrase and against S. aureus gyrase was more than 10 µM throughout. Further, the MIC in the assay on S. aureus (ATCC29213) is 32 µg/mL (≈ 77.4 µM); in the assay with E. coli (ATCC25922) it was more than 128 µg/mL.

Take `CO[C@H]1CN(c2ccc(C(=N)N)nn2)CC[C@H]1NC(=O)c1[nH]c(C)c(Cl)c1Cl` [Compound 35, N-((3S,4R)-1-(6-Carbamimidoylpyridazin-3-yl)-3-methoxypiperidin-4-yl)-3,4-dichloro-5-methyl-1H-pyrrole-2-carboxamide]: the IC50 against E. coli gyrase and on S. aureus gyrase was more than 10 µM throughout. Moreover, the MIC was 32 µg/mL (≈ 75.1 µM) with S. aureus (ATCC29213) and more than 128 µg/mL in the assay on E. coli (ATCC25922).

With `CO[C@H]1CN(c2ccc(-c3nn[nH]n3)nn2)CC[C@H]1NC(=O)c1[nH]c(C)c(Cl)c1Cl` [Compound 36, N-((3S,4R)-1-(6-(2H-Tetrazol-5-yl)pyridazin-3-yl)-3-methoxypiperidin-4-yl)-3,4-dichloro-5-methyl-1H-pyrrole-2-carboxamide], the IC50 at E. coli gyrase and at S. aureus gyrase was more than 10 µM in each case. Besides, the MIC was 0.5 µg/mL (≈ 1.11 µM) in the assay with S. aureus (ATCC29213) and 16 µg/mL (≈ 35.4 µM) with E. coli (ATCC25922).
